Source: paper PMC2099433, “The binding site for neohesperidin dihydrochalcone at the human sweet taste receptor” (BMC Structural Biology, 2007)
Positions count from the first letter of the chain named. Where a SMILES comes first, the peptide text is derived from it.

Columns and labels:
[1] = target: T1, hTAS1R2 + hTAS1R3 V621I^2.58 (Homo sapiens, UniProt Q7RTX0+Q8TE23, V621I); assay: Calcium response (FLIPR), hTAS1R3 mutant coexpressed with hTAS1R2; type: cell-based; details: variant V621I^2.58; for EC50: (>) EC50 not calculable because saturation is not reached; for Emax: read-out: maximal signal (% of wt)
T1 construct: expressed in transfected cells; host or cells: HEK293T cells stably expressing G16Gust44
T1 sequence (Q8TE23 20-839): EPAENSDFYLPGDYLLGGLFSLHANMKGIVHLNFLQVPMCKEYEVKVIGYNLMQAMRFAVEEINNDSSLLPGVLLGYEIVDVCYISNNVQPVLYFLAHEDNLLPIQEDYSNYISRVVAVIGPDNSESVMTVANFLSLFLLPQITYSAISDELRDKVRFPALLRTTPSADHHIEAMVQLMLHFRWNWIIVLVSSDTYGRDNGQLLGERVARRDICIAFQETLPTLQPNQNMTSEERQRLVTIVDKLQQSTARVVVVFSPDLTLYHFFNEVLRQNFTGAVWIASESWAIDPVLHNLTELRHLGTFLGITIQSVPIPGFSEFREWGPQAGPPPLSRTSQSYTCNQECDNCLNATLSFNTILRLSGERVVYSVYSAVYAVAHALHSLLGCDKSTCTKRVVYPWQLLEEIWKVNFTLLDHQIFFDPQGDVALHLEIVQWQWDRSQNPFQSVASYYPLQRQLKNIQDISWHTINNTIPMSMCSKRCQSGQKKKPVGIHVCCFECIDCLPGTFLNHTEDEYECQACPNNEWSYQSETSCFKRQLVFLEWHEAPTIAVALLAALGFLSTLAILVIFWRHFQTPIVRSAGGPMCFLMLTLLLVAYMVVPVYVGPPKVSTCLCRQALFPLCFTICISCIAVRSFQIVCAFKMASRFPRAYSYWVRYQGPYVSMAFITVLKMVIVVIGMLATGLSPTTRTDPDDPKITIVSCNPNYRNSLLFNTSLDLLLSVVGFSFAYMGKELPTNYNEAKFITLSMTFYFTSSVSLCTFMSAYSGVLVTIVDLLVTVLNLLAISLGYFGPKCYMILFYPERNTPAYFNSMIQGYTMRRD
T1 sequence (Q7RTX0 21-852 V621I): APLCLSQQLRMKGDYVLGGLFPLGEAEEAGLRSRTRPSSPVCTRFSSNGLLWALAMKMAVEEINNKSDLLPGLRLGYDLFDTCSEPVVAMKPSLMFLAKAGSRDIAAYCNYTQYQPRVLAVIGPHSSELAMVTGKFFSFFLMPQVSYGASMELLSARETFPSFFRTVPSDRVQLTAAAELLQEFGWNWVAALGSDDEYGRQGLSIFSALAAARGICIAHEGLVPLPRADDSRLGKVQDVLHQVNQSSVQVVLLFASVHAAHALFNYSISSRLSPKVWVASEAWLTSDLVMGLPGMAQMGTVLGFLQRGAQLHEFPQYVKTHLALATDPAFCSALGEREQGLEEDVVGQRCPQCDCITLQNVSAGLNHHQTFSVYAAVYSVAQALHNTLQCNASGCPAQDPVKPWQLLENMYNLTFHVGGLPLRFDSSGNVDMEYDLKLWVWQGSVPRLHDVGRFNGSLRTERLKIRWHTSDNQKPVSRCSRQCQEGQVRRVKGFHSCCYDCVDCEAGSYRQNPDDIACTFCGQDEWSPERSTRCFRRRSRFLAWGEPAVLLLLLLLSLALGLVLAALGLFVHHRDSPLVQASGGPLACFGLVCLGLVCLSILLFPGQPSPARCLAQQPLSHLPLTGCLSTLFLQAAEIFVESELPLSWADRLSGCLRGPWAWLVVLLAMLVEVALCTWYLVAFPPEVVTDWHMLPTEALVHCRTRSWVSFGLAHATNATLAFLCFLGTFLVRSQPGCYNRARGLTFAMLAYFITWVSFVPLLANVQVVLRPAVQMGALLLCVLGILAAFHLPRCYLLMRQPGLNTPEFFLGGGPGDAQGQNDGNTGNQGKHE
Summary of the method: (§1)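 HEK293T cells stably expressing chimeric G16Gust44 were transiently transfected with C-terminally HSV-tagged hTAS1R2 and mutant hTAS1R3, then loaded 24 h later with Fluo4-AM for 1 h. Calcium mobilization after sweet-tastant application was read by FLIPR, mock-corrected and expressed as ΔF/F.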

[2] = target: T2, hTAS1R2 + hTAS1R3 G804A^7.42 (Homo sapiens, UniProt Q7RTX0+Q8TE23, G804A); assay: as above; type: cell-based; details: variant G804A^7.42; for Emax: read-out: maximal signal (% of wt)
T2 construct: expressed in transfected cells; host or cells: HEK293T cells stably expressing G16Gust44
T2 sequence (Q7RTX0 21-852 G804A): T1 sequence (Q7RTX0 21-852 V621I) with I601V, G784A
T2 sequence (Q8TE23 20-839): T1 sequence (Q8TE23 20-839)
Summary of the method: as §1

| SMILES | EC50 [1] [µM] | Emax [1] [%] | EC50 [2] [µM] | Emax [2] [%] |
| --- | --- | --- | --- | --- |
| COc1ccc(CCC(=O)c2c(O)cc(O[C@@H]3O[C@H](CO)[C@@H](O)[C@H](O)[C@H]3O[C@@H]3O[C@@H](C)[C@H](O)[C@@H](O)[C@H]3O)cc2O)cc1O [NHDC, neohesperidin dihydrochalcone] | > 1000 | 60 ± 14 | 1300 ± 500 | 53 ± 10 |
| COC(=O)[C@H](Cc1ccccc1)NC(=O)[C@@H](N)CC(=O)O [aspartame] (HELM PEPTIDE1{D.F.[CO[*:1]]}$$$$V2.0) | 1900 ± 400 | 61 ± 1 | 1600 ± 200 | 44 ± 1 |
